Measured values as given in US12685777B2, “Compositions, systems, and methods for modulating a target gene” (The Board of Trustees of the Leland Stanford Junior …, priority 2022, dated 2026).
“Also recorded” adds a separate entry of the source. Read-outs that look alike come from different tables or passages of the source. Values belong to the compound of their own block, whether it stands above or below them.

Key:
CDK9 and BCL6 = biological target: T1, CDK9 and BCL6 (Homo sapiens, UniProt P41182+P50750); assay: Competition of TCIP-induced cell death with BCL6 inhibitor; format: cell-based; conditions: cell death recorded 72 hours after adding
T1 construct: endogenous in cells

SUDHL5 = assay: Killing of lymphoma cell lines by CDK9-BCL6 TCIPs, death recorded 72 hours later; format: cell-based, human
Procedure: FIG. 15 CDK9-BCL6 TCIPs Effectively Kill Human Lymphomas. The molecules shown in FIG. 14 were used at the indicated concentrations to treat different lymphoma cell lines, such as SUDHL5 shown here. Death was recorded 72 hours later.

DMS-79 = assay: Dose response on viability of small cell lung cancer line, resazurin assay; format: cell-based; conditions: DMS-79, 72 h treatment
Procedure: (§1) IC50 of JWZ-7-7, BI-3812, JQ1, and combinations were calculated based on a dose response curve on three small cell lung cancer lines (FIG. 5). The dose response curve on viability was performed in technical replicates and biological triplicate after treating cells for 72 hours across a broad range of concentrations via serial dilutions. Viable cells were measured after treatment via a resazurin assay. The signal for viable assays was normalized to the DMSO treated negative control. A four-parameter non-linear fit was performed to fit a curve to calculate the IC50 for each of the cell lines. The table below describes the calculated IC50 across JWZ-7-7, JQ1, BI-3812 and combination of JQ1 and BI-3812 after 72 h treatment in technical replicates and biological triplicates.

NCI-H1105 = assay: as above; format: cell-based; conditions: NCI-H1105, 72 h treatment
Procedure: as §1

NCI-H2196 = assay: as above; format: cell-based; conditions: NCI-H2196, 72 h treatment
Procedure: as §1

[1] = system: MYC, FOXO3, p21, BCL6, BRD4 protein levels in KARPAS422 and SUDHL5; assay: Western blots of target proteins in DLBCL cells; format: cell-based, human; conditions: titrated against constant 10 nM TCIP1, 8 hours
Procedure: Cells were plated at 1 M/mL and treated with drug at indicated timepoints and doses. 2 M Cells were harvested on ice in RIPA buffer (50 mM Tris-HCl pH 8, 150 mM NaCl, 1% NP-40, 0.1% DOC, 1% SDS, protease inhibitor cocktail (homemade), 1 mM DTT) and 1:200 benzonase (Sigma #E1014) was added and incubated for 20 minutes. After 10 minute centrifugation at 14,000 g and 4° C., the supernatant was collected and protein concentration was measured by Bradford.
Because a high percentage of the TCIP1-treated cells contain fragmented DNA by TUNEL assay at 24 hours (FIG. 31, Panel E), many of the “reduced genes” could reflect DNA fragmentation as part of the apoptotic process and digestion to mononucleosomes. Among the group of genes whose expression was most reduced were MYC and its targets (FIGS. 33B, 36C). The top 100 most TCIP1-reduced genes were examined using ChIP-seq data of human transcription factors in blood cancer cell lines, and found the promoters of TCIP1-inhibited genes highly enriched for MYC binding in multiple datasets (FIG. 33, Panel C). This is significant since many DLBCLs are considered to be MYC-dependent.
Signaling via NF-kB is known to be repressed by BCL6.

DLBCL cell lines = assay: Chemical rescue: competitive titration of JQ1 or Bl3812 against the TCIP; format: cell-based; conditions: titrated against constant JWZ-7-7 / TCIP1
[2] = system: MYC, FOXO3, p21, BCL6, BRD4 protein levels in KARPAS422 and SUDHL5; conditions: known for BET/BRD4 inhibitors; cited from earlier work
[3] = system: human prostatic cancer cell lines; assay: Viable cell counts of androgen-dependent prostate cancer cell lines after 72 hours; format: cell-based; conditions: 72 hours of exposure, read-out: IC50 of killing of prostate cancer cell lines
Procedure: The AR-BCL6 TCIPs synthesized in I above were tested for their ability to kill prostate cancer cell lines as an indication of their ability to treat human prostatic cancer. AR-TCIPs rapidly and robustly kill human prostatic cancer cell lines. Four different cell lines were used that are androgen-dependent. The drugs were added at the indicated concentrations and viable cell counts determined after 72 hours of exposure. […] The EC50 is shown in each case.

AR and BCL6 = biological target: T2, AR and BCL6 (Homo sapiens, UniProt P10275+P41182); assay: AR-BCL6 nanoBRET assay in HEK293 cells; format: cell-based; conditions: labeled AR and BCL6
T2 construct: HaloTag; NanoLuc; expressed in transfected cells; host or cells: HEK293
From the text: To ascertain activity of TCIP RCS-02-063 as schematically illustrated in FIG. 1, w a BRET assay was developed to detect in vivo target engagement and ternary complex formation. FIG. 25 (Panels A-B) provides an illustration of the assay as wells the results obtained therefrom. […] A BRET signal at 618 nm was then detected after excitation at 460 nm of HEK293 cells infected with the labeled fusion proteins.

T2 sequence (P10275 whole entry, other chains not shown): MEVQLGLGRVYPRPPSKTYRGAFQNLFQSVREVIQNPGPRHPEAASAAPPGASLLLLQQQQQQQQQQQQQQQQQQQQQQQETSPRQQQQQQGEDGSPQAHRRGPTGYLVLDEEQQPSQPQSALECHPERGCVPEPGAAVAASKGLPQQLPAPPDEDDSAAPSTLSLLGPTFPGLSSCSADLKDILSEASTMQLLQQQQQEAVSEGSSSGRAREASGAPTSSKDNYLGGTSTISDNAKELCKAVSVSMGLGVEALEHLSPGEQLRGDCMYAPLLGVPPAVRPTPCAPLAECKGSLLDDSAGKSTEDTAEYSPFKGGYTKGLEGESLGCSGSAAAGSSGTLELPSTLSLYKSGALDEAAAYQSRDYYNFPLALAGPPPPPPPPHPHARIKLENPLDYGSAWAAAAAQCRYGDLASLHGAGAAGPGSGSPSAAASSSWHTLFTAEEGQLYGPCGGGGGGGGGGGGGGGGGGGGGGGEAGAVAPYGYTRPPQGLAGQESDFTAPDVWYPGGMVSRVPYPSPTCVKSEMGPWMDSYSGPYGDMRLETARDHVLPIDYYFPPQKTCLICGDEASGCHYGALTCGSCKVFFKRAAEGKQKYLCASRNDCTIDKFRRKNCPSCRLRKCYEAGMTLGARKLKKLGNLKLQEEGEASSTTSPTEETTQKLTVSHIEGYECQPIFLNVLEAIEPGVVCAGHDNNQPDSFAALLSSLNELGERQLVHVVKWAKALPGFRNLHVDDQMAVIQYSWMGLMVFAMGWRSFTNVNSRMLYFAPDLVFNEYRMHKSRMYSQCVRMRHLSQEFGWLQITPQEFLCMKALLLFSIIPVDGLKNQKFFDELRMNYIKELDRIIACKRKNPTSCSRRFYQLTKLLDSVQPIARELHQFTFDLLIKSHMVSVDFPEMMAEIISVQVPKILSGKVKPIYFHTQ

Compound: CNC(=O)COc1cc2cc(Nc3nc(N4CCC(C(=O)NCCCCCCC(=O)N5CCC(C(=O)Nc6ncc(SCc7ncc(C(C)(C)C)o7)s6)CC5)CC4)ncc3Cl)cc(OC)c2n(C)c1=O [BAK04-21]
Ternary complex in cells, competition with Bl3812 (CDK9 and BCL6): forms a ternary complex in cells that can be competed with the BCL6 inhibitor

Compound: CNC(=O)COc1cc2cc(Nc3nc(N4CCC(C(=O)NCCCCCCC(=O)N5CCC(C(=O)Nc6ncc(SCc7ncc(C(C)(C)C)o7)s6)CC5)CC4)ncc3Cl)cc(OC)c2n(C)c1=O [BAK_04_21]
Killing of lymphoma cells relative to component and competitor molecules (SUDHL5): more effective at killing lymphoma cells than component molecules and competitor molecules

IC50 (DMS-79; Homo sapiens): 6.1 µM
IC50 (NCI-H1105; read-out: IC50): 4.3 µM
IC50 (NCI-H2196; Homo sapiens): 3.5 µM
Compound: CNC(=O)COc1cc2cc(Nc3nc(N4CCC(C(=O)N(C)C)CC4)ncc3Cl)cc(OC)c2n(C)c1=O [BI-3812]

Compound: CNC(=O)COc1cc2cc(Nc3nc(N4CCC(C(=O)N(C)C)CC4)ncc3Cl)cc(OC)c2n(C)c1=O [Bl3812]
Reversal of TCIP1-induced protein changes [1]: reversed p21 upregulation, FOXO3 upregulation, and MYC downregulation
Rescue of TCIP-induced cell death (DLBCL cell lines): rescue cell death; also recorded: prevented death by TCIP1

Compound: Cc1sc2c(c1C)C(c1ccc(Cl)cc1)=N[C@@H](CC(=O)OC(C)(C)C)c1nnc(C)n1-2 [JQ1]
IC50 (DMS-79): 10.1 µM
IC50 (NCI-H1105): Unstable
IC50 (NCI-H2196): 14.4 µM
Rescue of TCIP-induced cell death (DLBCL cell lines): rescue cell death; also recorded: prevented death by TCIP1
Drug level that reduces expression of MYC [2]: 500 nM

Compound: CNC(=O)COc1cc2cc(Nc3nc(N4CCC(C(=O)NCCCNC(=O)CO/N=C5\CC[C@H]6[C@@H]7CC[C@H]8CC(=O)CC[C@]8(C)[C@H]7CC[C@]56C)CC4)ncc3Cl)cc(OC)c2n(C)c1=O [RCS-02-063]
IC50 [3]: ~1 µM
IC50 ([3]; Homo sapiens, 72 h): ~1.5 µM
BRET signal (target engagement) (AR and BCL6): robust BRET signal
